Tests used:
Q46 protein aggregates = biological target: T1, Q46 protein aggregates (Homo sapiens, UniProt P42858); assay: Q46 Radioligand Binding Assay (RBA), displacement of [^3H3]MK-3328; settings: 10 nM [^3H3]MK-3328, 5 μM Q46 protein aggregates
T1 construct: fused on or other part: An N-terminal GST tag, cleaved off with thrombin before the assay to trigger aggregation
Protocol: For radioligand binding assays (RBA) GST-Q46 protein was generated based on a previous publication (Scherzinger et al. Cell, Vol. 90, 549-558, Aug. 8, 1997). For experiments 33 μM GST-Q46 was incubated with 150 μg/mL thrombin in assay buffer (150 mM NaCl, 50 mM Tris pH 8.0) and 2 mM CaCl2 for 16 hours at 37° C. Aggregated Q46 was pelleted by centrifugation for 5 minutes at 13,000 rpm in a bench top centrifuge and re-dissolved in the same volume of assay buffer. Test compounds were prepared by titration in DMSO at 11 concentrations from 33 μM to 1 nM. For the RBA, Q46 protein aggregates and test compounds were pre-incubated in assay buffer for 20 minutes at room temperature, in 140 μL/well in a 96-well plate (pp, round bottom). Then, ligand was added in 10 μL/well and incubated for 60 minutes at 37° C. Final assay concentrations were 1 μM to 30 pM test compound, 5 μM Q46 protein (equivalent monomer concentration) and 10 nM ligand [^3H3]MK-3328 (Harrision et al., ACS Med. Chem. Lett., 2 (2011), pp 498-502). Samples were transferred onto GF/B filter plates and washed 2× with 200 μL PBS using a Filtermate Harvester. After drying filter plates for 1 hour at 37° C., the back of the plates was sealed with foil and 30 μl/well scintillation fluid (Packard MicroScint 40) was added, incubated for incubated for 15 minutes in the dark and counted in a TopCount reader. For analysis, replicate data from independent assay plates were normalized towards 0% and 100% inhibition using control wells of vehicle (0% inhibition) and 3 μM unlabelled MK-3328 (100% inhibition). IC50 values were determined with a sigmoidal inhibition model with four variables (top, bottom, slope, IC50) in a global fit using the normalized replicate data.

[1] = tested on: zQ175 knock-in mice (cortex, hippocampus, striatum, cerebellum); assay: In vivo PET imaging in a knock-in model of Huntington's disease; parameters: species or system mouse; settings: for % SUV: Mean ± SD
Protocol: ^11C-labeled Compound 1 of Method 1 was evaluated for its ability to penetrate the central nervous system of mice following systemic administration, and its binding to the cerebellum, striatum, hippocampus, and cortex was quantitated. Three groups of animals were compared: wild-type, and mice that were heterozygous or homozygous for the zQ175 knock-in allele. (Menalled L. B. et al. Comprehensive behavioral and molecular characterization of a new knock-in mouse model of Huntington's disease: zQ175. PloS One 2012, 7, e49838). Forty-eight nine months old animals (16 WT, 16 heterozygous and 16 homozygous zQ175) were obtained from The Jackson Laboratory, USA. The animals were housed at the animal department of Karolinska University Hospital in a temperature (±21° C.) and humidity (±40%) controlled environment on a 12 hour light/dark cycle (lights on 7:00 AM) with access to food and water ad libitum. Animals were allowed at least one week to habituate to the animal department before the start of the imaging sessions. All experiments were conducted during the light phase of the cycle.
Animals were anesthetized with inhalation of isoflurane (4-5% isoflurane in oxygen). After induction of anesthesia, the isoflurane concentration was lowered to 1.5-2% in 50/50 air/oxygen and the animals were positioned in the scanner in a designated mouse bed. A cannula was inserted in the tail vein through which the radioligand was administered. A 63-minute dynamic PET scan was initiated immediately upon intravenous injection of the radioligand. Upon completion of the imaging sessions, each animal was returned to its cage.
The acquired list mode data, was reconstructed into 25 timeframes (63 minute scan=4×10 s, 4×20 s, 4×60 s, 7×180 s, 6×360 s). The image reconstruction was made with a fully 3-dimensional maximum-likelihood expectation maximization algorithm (MLEM) with 20 iterations, without scatter and attenuation correction. The reconstructed dynamic PET images were co-registered to an inbuilt mouse MRI template available in PMOD, which also incorporates volumes of interest (VOI's) sets (PMOD Technologies Ltd., Zurich, Switzerland). With the help of these VOI sets, decay corrected time activity curves (TAC) were generated. The regional brain uptake values were expressed as percent standard uptake value (% SUV), which normalizes for injected radioactivity and body weight. In addition, the area under the curve (AUC) was calculated. The selected regions of interest (ROI) were: cortex, hippocampus, striatum and cerebellum.
The average % SUV and AUC values for the ^11C-labeled Compound 1 of Method 1 in the four brain regions, for the three groups of mice, are shown in Table 23. […] FIG. 3 presents the AUC values for the three groups of animals in the four regions of the brain.

T1 sequence (P42858 with tags, fused parts or gaps with the stated changes, form open): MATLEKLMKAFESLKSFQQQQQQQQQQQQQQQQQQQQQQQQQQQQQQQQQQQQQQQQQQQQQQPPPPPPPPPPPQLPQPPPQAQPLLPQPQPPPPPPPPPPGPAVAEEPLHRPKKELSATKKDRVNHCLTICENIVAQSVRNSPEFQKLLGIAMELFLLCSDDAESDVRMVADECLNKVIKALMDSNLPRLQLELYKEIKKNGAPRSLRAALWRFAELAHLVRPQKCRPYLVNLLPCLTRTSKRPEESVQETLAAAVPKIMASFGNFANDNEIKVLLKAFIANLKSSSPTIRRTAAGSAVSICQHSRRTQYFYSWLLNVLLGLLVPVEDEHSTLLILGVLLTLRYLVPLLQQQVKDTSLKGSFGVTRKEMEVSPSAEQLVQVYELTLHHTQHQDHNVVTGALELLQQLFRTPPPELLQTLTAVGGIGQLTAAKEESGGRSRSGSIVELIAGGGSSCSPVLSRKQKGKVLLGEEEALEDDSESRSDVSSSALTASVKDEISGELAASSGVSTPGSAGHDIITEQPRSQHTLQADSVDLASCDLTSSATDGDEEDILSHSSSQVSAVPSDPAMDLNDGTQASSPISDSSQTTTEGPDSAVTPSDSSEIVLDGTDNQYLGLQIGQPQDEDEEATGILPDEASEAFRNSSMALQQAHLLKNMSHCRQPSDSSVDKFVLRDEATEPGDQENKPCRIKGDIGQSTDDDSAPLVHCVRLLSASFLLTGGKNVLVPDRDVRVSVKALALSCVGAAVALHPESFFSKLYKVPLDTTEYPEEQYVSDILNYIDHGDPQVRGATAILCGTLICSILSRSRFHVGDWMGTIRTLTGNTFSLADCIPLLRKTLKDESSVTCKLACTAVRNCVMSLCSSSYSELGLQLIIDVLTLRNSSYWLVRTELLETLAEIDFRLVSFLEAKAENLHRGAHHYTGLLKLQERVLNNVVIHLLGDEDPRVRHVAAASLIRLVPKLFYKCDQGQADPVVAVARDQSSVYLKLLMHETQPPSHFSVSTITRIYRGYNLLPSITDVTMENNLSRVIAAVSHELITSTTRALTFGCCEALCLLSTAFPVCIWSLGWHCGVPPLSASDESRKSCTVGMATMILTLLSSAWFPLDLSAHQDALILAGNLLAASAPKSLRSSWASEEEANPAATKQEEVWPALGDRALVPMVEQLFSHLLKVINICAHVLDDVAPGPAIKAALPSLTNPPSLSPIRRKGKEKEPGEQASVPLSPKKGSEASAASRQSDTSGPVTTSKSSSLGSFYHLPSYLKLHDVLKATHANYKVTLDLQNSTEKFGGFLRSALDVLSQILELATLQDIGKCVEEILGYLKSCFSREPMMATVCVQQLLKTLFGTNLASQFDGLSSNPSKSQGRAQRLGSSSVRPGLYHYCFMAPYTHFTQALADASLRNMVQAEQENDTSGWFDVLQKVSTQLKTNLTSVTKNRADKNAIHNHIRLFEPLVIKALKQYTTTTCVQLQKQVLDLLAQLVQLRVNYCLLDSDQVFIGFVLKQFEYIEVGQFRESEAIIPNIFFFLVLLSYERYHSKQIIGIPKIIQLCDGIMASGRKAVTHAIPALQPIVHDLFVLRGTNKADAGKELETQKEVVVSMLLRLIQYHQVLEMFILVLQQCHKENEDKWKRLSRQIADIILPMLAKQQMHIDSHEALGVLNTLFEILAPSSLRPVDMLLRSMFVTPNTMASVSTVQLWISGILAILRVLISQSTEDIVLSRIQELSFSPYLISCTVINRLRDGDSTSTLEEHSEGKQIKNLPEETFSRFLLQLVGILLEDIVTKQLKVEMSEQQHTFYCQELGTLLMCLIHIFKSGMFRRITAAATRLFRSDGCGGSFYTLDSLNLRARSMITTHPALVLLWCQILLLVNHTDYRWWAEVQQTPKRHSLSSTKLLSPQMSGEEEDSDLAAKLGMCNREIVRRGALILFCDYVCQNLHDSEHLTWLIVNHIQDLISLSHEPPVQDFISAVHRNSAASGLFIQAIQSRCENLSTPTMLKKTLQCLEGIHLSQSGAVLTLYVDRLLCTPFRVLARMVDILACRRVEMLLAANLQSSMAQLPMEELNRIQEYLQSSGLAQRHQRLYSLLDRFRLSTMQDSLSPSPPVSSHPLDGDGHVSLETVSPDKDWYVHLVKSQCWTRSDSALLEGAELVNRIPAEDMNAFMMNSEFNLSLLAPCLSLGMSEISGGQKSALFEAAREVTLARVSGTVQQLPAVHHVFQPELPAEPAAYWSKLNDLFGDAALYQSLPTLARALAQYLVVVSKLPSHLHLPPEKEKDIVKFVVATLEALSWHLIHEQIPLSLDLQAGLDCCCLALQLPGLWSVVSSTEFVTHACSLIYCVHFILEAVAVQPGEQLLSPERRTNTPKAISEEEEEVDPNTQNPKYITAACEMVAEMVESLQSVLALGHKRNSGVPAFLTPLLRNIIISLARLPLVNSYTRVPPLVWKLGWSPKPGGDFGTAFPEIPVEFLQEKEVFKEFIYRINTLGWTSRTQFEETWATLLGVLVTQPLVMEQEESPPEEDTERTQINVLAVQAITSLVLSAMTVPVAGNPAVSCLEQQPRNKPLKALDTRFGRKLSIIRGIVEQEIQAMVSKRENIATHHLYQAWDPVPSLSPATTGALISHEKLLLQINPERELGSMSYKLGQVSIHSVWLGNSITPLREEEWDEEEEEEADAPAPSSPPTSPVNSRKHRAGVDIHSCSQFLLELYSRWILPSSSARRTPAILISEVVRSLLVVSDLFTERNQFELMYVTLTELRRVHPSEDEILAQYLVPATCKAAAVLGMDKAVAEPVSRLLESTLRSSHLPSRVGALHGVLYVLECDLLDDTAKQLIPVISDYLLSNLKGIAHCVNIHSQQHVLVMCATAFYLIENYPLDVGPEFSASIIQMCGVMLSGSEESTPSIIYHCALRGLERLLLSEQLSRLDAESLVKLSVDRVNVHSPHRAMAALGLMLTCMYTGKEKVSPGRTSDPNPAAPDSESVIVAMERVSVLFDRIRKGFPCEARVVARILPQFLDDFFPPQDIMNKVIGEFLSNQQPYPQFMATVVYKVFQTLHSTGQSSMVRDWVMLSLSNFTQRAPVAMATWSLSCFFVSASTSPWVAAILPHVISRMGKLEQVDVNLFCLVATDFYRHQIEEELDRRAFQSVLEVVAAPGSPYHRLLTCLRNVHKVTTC

Row | SMILES | IC50 (Q46 protein aggregates) | further results
1 | Cn1cc(NC(=O)c2ccn3c(n2)nc2ccccc23)ccc1=O [N-(1-methyl-6-oxo-1,6-dihydropyridin-3-yl)-1,8,10-triazatricyclo[7.4.0.0^2,7]trideca-2(7),3,5,8,10,12-hexaene-11-carboxamide] | 100 to 500 nM | 
2 | COc1cc(NC(=O)c2ccn3c(n2)nc2ccccc23)ccn1 [N-(2-methoxypyridin-4-yl)-1,8,10-triazatricyclo[7.4.0.0^2,7]trideca-2(7),3,5,8,10,12-hexaene-11-carboxamide] | < 100 nM | 
3 | COc1nccc(NC(=O)c2ccn3c(n2)nc2ccccc23)c1C#N [N-(3-cyano-2-methoxypyridin-4-yl)-1,8,10-triazatricyclo[7.4.0.0^2,7]trideca-2(7),3,5,8,10,12-hexaene-11-carboxamide] | < 100 nM | 
4 | N#Cc1cnccc1NC(=O)c1ccn2c(n1)nc1ccccc12 [N-(3-cyanopyridin-4-yl)-1,8,10-triazatricyclo[7.4.0.0^2,7]trideca-2(7),3,5,8,10,12-hexaene-11-carboxamide] | < 100 nM | 
5 | COc1ccc2c(c1)nc1nc(C(=O)Nc3ccncc3C#N)ccn12 [N-(3-cyanopyridin-4-yl)-5-methoxy-1,8,10-triazatricyclo[7.4.0.0^2,7]trideca-2(7),3,5,8,10,12-hexaene-11-carboxamide] | < 100 nM | 
6 | COc1cc(NC(=O)c2ccn3c(n2)nc2ccccc23)cnc1OC [N-(5,6-dimethoxypyridin-3-yl)-1,8,10-triazatricyclo[7.4.0.0^2,7]trideca-2(7),3,5,8,10,12-hexaene-11-carboxamide] | < 100 nM | 
7 | COc1cncc(NC(=O)c2ccn3c(n2)nc2ccccc23)c1 [N-(5-methoxypyridin-3-yl)-1,8,10-triazatricyclo[7.4.0.0^2,7]trideca-2(7),3,5,8,10,12-hexaene-11-carboxamide] | < 100 nM | 
8 | COc1cncc(NC(=O)c2cn3c(n2)sc2ccccc23)c1 [N-(5-methoxypyridin-3-yl)-7-thia-2,5-diazatricyclo[6.4.0.0^2,6]dodeca-1(12),3,5,8,10-pentaene-4-carboxamide] | < 100 nM | 
9 | COc1cncc(NC(=O)c2cn3c(n2)sc2cc(-c4ccccc4)ccc23)c1 [N-(5-methoxypyridin-3-yl)-10-phenyl-7-thia-2,5-diazatricyclo[6.4.0.0^2,6]dodeca-1(12),3,5,8,10-pentaene-4-carboxamide] | < 100 nM | 
10 | O=C(Nc1ccc(F)nc1)c1ccn2c(n1)nc1ccccc12 [N-(6-fluoropyridin-3-yl)-1,8,10-triazatricyclo[7.4.0.0^2,7]trideca-2(7),3,5,8,10,12-hexaene-11-carboxamide] | < 100 nM | 
11 | COc1ccc2c(c1)sc1nc(C(=O)Nc3ccc(F)nc3)cn12 [N-(6-fluoropyridin-3-yl)-10-methoxy-7-thia-2,5-diazatricyclo[6.4.0.0^2,6]dodeca-1(12),3,5,8,10-pentaene-4-carboxamide] | < 100 nM | 
12 | COc1ccc(NC(=O)c2ccn3c(n2)nc2ccccc23)cn1 [N-(6-methoxypyridin-3-yl)-1,8,10-triazatricyclo[7.4.0.0^2,7]trideca-2(7),3,5,8,10,12-hexaene-11-carboxamide] | < 100 nM | 
13 | O=C(Nc1ccc(=O)[nH]n1)c1ccn2c(n1)nc1ccccc12 [N-(6-oxo-1,6-dihydropyridazin-3-yl)-1,8,10-triazatricyclo[7.4.0.0^2,7]trideca-2(7),3,5,8,10,12-hexaene-11-carboxamide] | < 100 nM | 
14 | O=C(Nc1ccc(=O)[nH]c1)c1ccn2c(n1)nc1ccccc12 [N-(6-oxo-1,6-dihydropyridin-3-yl)-1,8,10-triazatricyclo[7.4.0.0^2,7]trideca-2(7),3,5,8,10,12-hexaene-11-carboxamide] | < 100 nM | 
15 | O=C(Nc1cccnc1)c1ccn2c(n1)nc1ccccc12 [N-(pyridin-3-yl)-1,8,10-triazatricyclo[7.4.0.0^2,7]trideca-2(7),3,5,8,10,12-hexaene-11-carboxamide] | > 500 nM | 
16 | COc1ccc2c(c1)sc1nc(CNc3cccnc3)cn12 [N-({10-methoxy-7-thia-2,5-diazatricyclo[6.4.0.0^2,6]dodeca-1(12),3,5,8,10-pentaen-4-yl}methyl)pyridin-3-amine] | > 500 nM | 
17 | COc1ccc2c(c1)sc1nc(C(=O)NCCN(C)C)cn12 [N-[2-(dimethylamino)ethyl]-10-methoxy-7-thia-2,5-diazatricyclo[6.4.0.0^2,6]dodeca-1(12),3,5,8,10-pentaene-4-carboxamide] | 100 to 500 nM | 
18 | COCCOc1cncc(NC(=O)c2ccn3c(n2)nc2ccccc23)c1 [N-[5-(2-methoxyethoxy)pyridin-3-yl]-1,8,10-triazatricyclo[7.4.0.0^2,7]trideca-2(7),3,5,8,10,12-hexaene-11-carboxamide] | < 100 nM | 
19 | COc1ccc2c(c1)nc1nc(C(=O)Nc3ccc(-n4ccnc4)nc3)ccn12 [N-[6-(1H-imidazol-1-yl)pyridin-3-yl]-5-methoxy-1,8,10-triazatricyclo[7.4.0.0^2,7]trideca-2(7),3,5,8,10,12-hexaene-11-carboxamide] | < 100 nM | 
20 | COc1ccc2c(c1)sc1nc(C(=O)Nc3ccc(-n4ccnc4)nc3)cn12 [N-[6-(1H-imidazol-1-yl)pyridin-3-yl]-10-methoxy-7-thia-2,5-diazatricyclo[6.4.0.0^2,6]dodeca-1(12),3,5,8,10-pentaene-4-carboxamide] | < 100 nM | 
21 | COCCOc1ccc(NC(=O)c2ccn3c(n2)nc2ccccc23)cn1 [N-[6-(2-methoxyethoxy)pyridin-3-yl]-1,8,10-triazatricyclo[7.4.0.0^2,7]trideca-2(7),3,5,8,10,12-hexaene-11-carboxamide] | < 100 nM | 
22 | CNC(=O)c1ccc(NC(=O)c2ccn3c(n2)nc2ccccc23)cn1 [N-[6-(methylcarbamoyl)pyridin-3-yl]-1,8,10-triazatricyclo[7.4.0.0^2,7]trideca-2(7),3,5,8,10,12-hexaene-11-carboxamide] | < 100 nM | 
23 | [11CH3]Oc1ccc2c(c1)sc1nc(C(=O)Nc3cccnc3)cn12 [^11C-labeled Compound 1 of Method 1, 10-[^11C]-methoxy-N-(pyridin-3-yl)-7-thia-2,5-diazatricyclo[6.4.0.0^2,6]dodeca-1(12),3,5,8,10-pentaene-4-carboxamide] |  | % SUV ([1]; Cerebellum, WT mice (n = 7)): 74.1 ± 7.1 % SUV; % SUV ([1]; Cerebellum, het zQ175 mice (n = 6)): 80.5 ± 6.5 % SUV; % SUV ([1]; Cerebellum, hom zQ175 mice (n = 8)): 92.3 ± 11.3 % SUV; % SUV ([1]; Cortex, WT mice (n = 7)): 67.1 ± 5.7 % SUV; % SUV ([1]; Cortex, het zQ175 mice (n = 6)): 73.4 ± 5.1 % SUV; % SUV ([1]; Cortex, hom zQ175 mice (n = 8)): 93.1 ± 9.6 % SUV; % SUV ([1]; Hippocampus, WT mice (n = 7)): 73.3 ± 6.5 % SUV; % SUV ([1]; Hippocampus, het zQ175 mice (n = 6)): 82.0 ± 6.3 % SUV; % SUV ([1]; Hippocampus, hom zQ175 mice (n = 8)): 107.1 ± 10.8 % SUV; % SUV ([1]; Striatum, WT mice (n = 7)): 71.9 ± 6.7 % SUV; % SUV ([1]; Striatum, het zQ175 mice (n = 6)): 82.7 ± 7.0 % SUV; % SUV ([1]; Striatum, hom zQ175 mice (n = 8)): 107.6 ± 9.6 % SUV; binding of the radioligand relative to wild type ([1]; all four brain regions, mice homozygous for the zQ175 allele): Increased binding of the radioligand, relative to wild type
